Values after ≈ are worked out from the molar mass of the structure shown.
Columns and labels:
[1] = system: SW707 (human colorectal adenocarcinoma); experiment: Antiproliferative assay in vitro (SRB); assay type: cell-based; details: for IC50: Homo sapiens, SW707, read-out: Cytotoxic activity IC50, Human SW707
Method: (§1) Cytotoxic activities of all newly synthesized compounds including betulin (1) were tested in SRB or MTT (in the case of leukemia cells) assay for their antiproliferative activity in vitro against three human cancer cell lines: SW707 (colorectal adenocarcinoma), CCRF/CEM (leukemia), T47D (breast cancer), and murine leukemia P388 as well as Balb3T3 normal fibroblasts cell lines. […] A value of less than 4 μg/mL was considered as an antiproliferative activity criterion for synthetic compounds [31].
(§2) The following established in vitro cell lines were applied: SW707 (human colorectal adenocarcinoma), CCRF/CEM (human leukemia), T47D (human breast cancer), P388 (mouse leukemia) and Balb3T3 (normal mouse fibroblasts). All lines were obtained from the American Type Culture Collection (Rockville, MD, USA) and maintained at the Cell Culture Collection of the Institute of Immunology and Experimental Therapy (Wroclaw, Poland).
(§3) Twenty-four hours before addition of the tested agents, the cells were plated in 96-well plates (Sarstedt, Numbrecht, Germany) at a density of 10^4 cells per well in 100 μL of culture medium. The cells were cultured in the opti-MEM medium supplemented with 2 mM glutamine (Gibco, Grand Island, NY, USA), streptomycin (50 μg/mL), penicillin (50 U/mL) (both antibiotics from Polfa, Tarchomin, Poland) and 5% fetal calf serum (Gibco). The cell cultures were maintained at 37 °C in humid atmosphere saturated with 5% CO2.
(§4) The compounds were dissolved in DMSO and culture medium (1:9) to the concentration of 1 mg/mL, and subsequently diluted in culture medium to reach the required concentrations (ranging from […]).
(§5) The in vitro cytotoxic effect of all agents was examined using the SRB assay for adherent cells and MTT assay for leukemia cells as described by Wietrzyk et al.. Each compound in given concentration was tested in triplicates in each experiment, which was repeated 3–5 times.

[2] = system: T47D (human breast cancer); experiment: Antiproliferative assay in vitro (SRB); assay type: cell-based; details: for IC50: Homo sapiens, T47D, read-out: Cytotoxic activity IC50, Human T47D
Method: as §1, §2, §3, §4, §5

[3] = system: CCRF/CEM (human leukemia); experiment: Antiproliferative assay in vitro (MTT); assay type: cell-based; details: for IC50: Homo sapiens, CCRF-CEM, read-out: Cytotoxic activity IC50, Human CCRF/CEM
Method: as §1, §2, §3, §4, §5

P388 (mouse leukemia) = experiment: Antiproliferative assay in vitro (MTT); assay type: cell-based; details: for IC50: Mus musculus, P388, read-out: Cytotoxic activity IC50, Murine P388
Method: as §1, §2, §3, §4, §5

[4] = system: Balb3T3 (normal mouse fibroblasts); experiment: Antiproliferative assay in vitro (SRB); assay type: cell-based
Method: as §1, §2, §3, §4, §5

Row | Structure (SMILES) | IC50 [1] [µg/mL] | IC50 [2] [µg/mL] | IC50 [3] [µg/mL] | IC50 (P388 (mouse leukemia)) [µg/mL] | melting point [°C] | Cytotoxic activity IC50, Murine Balb3T3 [4] | Cytotoxic activity IC50, Human SW707 [1] | Cytotoxic activity IC50, Human T47D [2] | Cytotoxic activity IC50, Human CCRF/CEM [3] | Cytotoxic activity IC50, Murine P388 (P388 (mouse leukemia)) | ID50 value against human leukemia (CCRF/CEM) cell line ([3]; CCRF/CEM, abstract wording) [µg/mL] | selectivity index (SI) ([3]; ratio IC50 of normal fibroblast (Balb3T3) / IC50 on CCRF/CEM)
1 | C#CCCOC(=O)OC[C@]12CCC(C(=C)C)C1C1CCC3[C@@]4(C)CC[C@H](O)C(C)(C)C4CC[C@@]3(C)[C@]1(C)CC2 (stereo partly shown) [Compound 3b, 28-O-(3-Butynyloxycarbonyl)betulin] | 22.6 ± 11.9 (≈ 41.9 µM) | 6.9 ± 2.3 (≈ 12.8 µM) | 5.2 ± 1.4 (≈ 9.65 µM) | 3.6 ± 1.3 (≈ 6.68 µM) | 86 to 88 |  |  |  |  |  |  | 
2 | C=C(C)C1CC[C@]2(COC(=O)OCC#CC)CC[C@]3(C)C(CCC4[C@@]5(C)CC[C@H](O)C(C)(C)C5CC[C@]43C)C12 (stereo partly shown) [Compound 3c, 28-O-(2-Butynyloxycarbonyl)betulin] | 36.9 ± 6.3 (≈ 68.5 µM) | 20.1 ± 5.3 (≈ 37.3 µM) | 6.8 ± 2.9 (≈ 12.6 µM) | 5.5 ± 2.8 (≈ 10.2 µM) | 112 to 114 |  |  |  |  |  |  | 
3 | C=C(C)C1CC[C@]2(COC(=O)OCC)CC[C@]3(C)C(CCC4[C@@]5(C)CC[C@H](O)C(C)(C)C5CC[C@]43C)C12 (stereo partly shown) [Compound 3d, 28-O-Ethoxycarbonylbetulin] | 20.8 ± 14.7 (≈ 40.4 µM) | 6.6 ± 1.3 (≈ 12.8 µM) | 4.1 ± 0.2 (≈ 7.96 µM) | 3.8 ± 1.9 (≈ 7.38 µM) | 94 to 96 |  |  |  |  |  |  | 
4 | C#CCOC(=O)OC[C@]12CCC(C(=C)C)C1C1CCC3[C@@]4(C)CC[C@H](OC(=O)OCC#C)C(C)(C)C4CC[C@@]3(C)[C@]1(C)CC2 (stereo partly shown) [Compound 4a, 3,28-O,O'-Di(propargyloxycarbonyl)betulin] |  |  |  | 33.4 ± 1.7 (≈ 55 µM) | 125 to 127 | Neg | Neg | Neg | Neg |  |  | 
5 | C#CCCOC(=O)OC[C@]12CCC(C(=C)C)C1C1CCC3[C@@]4(C)CC[C@H](OC(=O)OCCC#C)C(C)(C)C4CC[C@@]3(C)[C@]1(C)CC2 (stereo partly shown) [Compound 4b, 3,28-O,O'-Di(3-butynyloxycarbonyl)betulin] |  |  |  |  | 140 to 142 | Neg | Neg | Neg | Neg | Neg |  | 
6 | C=C(C)C1CC[C@]2(COC(=O)OCC#CC)CC[C@]3(C)C(CCC4[C@@]5(C)CC[C@H](OC(=O)OCC#CC)C(C)(C)C5CC[C@]43C)C12 (stereo partly shown) [Compound 4c, 3,28-O,O'-Di(2-butynyloxycarbonyl)betulin] |  |  |  | 50.4 ± 31.1 (≈ 79.4 µM) | 70 to 73 | Neg | Neg | Neg | Neg |  |  | 
7 | C=C(C)C1CC[C@]2(COC(=O)OCC)CC[C@]3(C)C(CCC4[C@@]5(C)CC[C@H](OC(=O)OCC)C(C)(C)C5CC[C@]43C)C12 (stereo partly shown) [Compound 4d, 3,28-O,O'-Di(ethoxycarbonyl)betulin] |  | 69.1 ± 12.4 (≈ 118 µM) | 52.6 ± 8.3 (≈ 89.6 µM) | 46.8 ± 21.6 (≈ 79.7 µM) | 84 to 86 | Neg | Neg |  |  |  |  | 
8 | C#CC(=O)OCC12CCC(C(=C)C)C1C1CCC3C4(C)CCC(O)C(C)(C)C4CCC3(C)C1(C)CC2 (stereo not shown) [Compound 5a, 28-O-Propynoylbetulin] | 14.9 ± 3.3 (≈ 30.1 µM) | 9.1 ± 1.9 (≈ 18.4 µM) | 0.02 ± 0.001 (≈ 0.0404 µM) | 0.4 ± 0.1 (≈ 0.808 µM) |  |  |  |  |  |  | 0.02 (≈ 0.0404 µM) | 15
9 | C=C(C)C1CC[C@]2(COC(=O)CC)CC[C@]3(C)C(CCC4[C@@]5(C)CC[C@H](O)C(C)(C)C5CC[C@]43C)C12 (stereo partly shown) [Compound 5c, 28-O-Propanoylbetulin] | 29.2 ± 24.4 (≈ 58.5 µM) | 12.1 ± 4.4 (≈ 24.3 µM) | 8.1 ± 0.9 (≈ 16.2 µM) | 3.3 ± 0.8 (≈ 6.62 µM) | 160 to 162 |  |  |  |  |  |  | 
10 | C#CC(=O)OC[C@]12CCC(C(=C)C)C1C1CCC3[C@@]4(C)CC[C@H](OC(=O)C#C)C(C)(C)C4CC[C@@]3(C)[C@]1(C)CC2 (stereo partly shown) [Compound 6a, 3,28-O,O'-Dipropynoylbetulin] | 9.5 ± 1.9 (≈ 17.4 µM) | 16.2 ± 4.3 (≈ 29.6 µM) | 9.9 ± 7 (≈ 18.1 µM) | 31.9 ± 1.4 (≈ 58.3 µM) | 102 to 104 |  |  |  |  |  |  | 
11 | C=C(C)C1CC[C@]2(COC(=O)CC)CC[C@]3(C)C(CCC4[C@@]5(C)CC[C@H](OC(=O)CC)C(C)(C)C5CC[C@]43C)C12 (stereo partly shown) [Compound 6c, 3,28-O,O'-Dipropanoylbetulin] | 42.3 ± 9.4 (≈ 76.2 µM) | 26.6 ± 6.8 (≈ 47.9 µM) |  | 68.1 ± 14.8 (≈ 123 µM) | 142 to 144 | Neg |  |  | Neg |  |  | 
12 | C=C(C)[C@@H]1CC[C@]2(COC(C)=O)CC[C@]3(C)[C@H](CC[C@@H]4[C@@]5(C)CC[C@H](O)C(C)(C)[C@@H]5CC[C@]43C)[C@@H]12 [Compound 7a, 28-O-acetylbetulin] | 5.1 ± 2.5 (≈ 10.5 µM) | 4.9 ± 0.6 (≈ 10.1 µM) | 3.4 ± 0.3 (≈ 7.01 µM) | 12.5 ± 14.7 (≈ 25.8 µM) |  |  |  |  |  |  |  | 
13 | C=C(C)C1CC[C@]2(COC(C)=O)CC[C@]3(C)C(CCC4[C@@]5(C)CC[C@H](OC(C)=O)C(C)(C)C5CC[C@]43C)C12 (stereo partly shown) [Compound 7b, 3,28-O,O'-diacetylbetulin] |  |  | 34.1 ± 6.4 (≈ 64.7 µM) | 40.2 ± 5 (≈ 76.3 µM) |  | Neg | Neg | Neg |  |  |  | 
14 | C#CCOC(=O)O[C@H]1CC[C@@]2(C)C(CC[C@]3(C)C2CCC2C4C(C(=C)C)CC[C@]4(COC(C)=O)CC[C@]23C)C1(C)C (stereo partly shown) [Compound 8a, 28-O-Acetyl-3-O'-propargyloxycarbonylbetulin] |  |  |  |  | 188 to 189 | Neg | Neg | Neg | Neg | Neg |  | 
15 | C#CCCOC(=O)O[C@H]1CC[C@@]2(C)C(CC[C@]3(C)C2CCC2C4C(C(=C)C)CC[C@]4(COC(C)=O)CC[C@]23C)C1(C)C (stereo partly shown) [Compound 8b, 28-O-Acetyl-3-O'-(3-butynyloxycarbonyl)betulin] |  |  |  | 46.7 ± 16.2 (≈ 80.4 µM) | 118 to 121 | Neg | Neg | Neg | Neg |  |  | 
16 | C=C(C)C1CC[C@]2(COC(C)=O)CC[C@]3(C)C(CCC4[C@@]5(C)CC[C@H](OC(=O)OCC#CC)C(C)(C)C5CC[C@]43C)C12 (stereo partly shown) [Compound 8c, 28-O-Acetyl-3-O'-(2-butynyloxycarbonyl)betulin] |  |  |  |  | 126 to 129 | Neg | Neg | Neg | Neg | Neg |  | 
17 | C=C(C)C1CC[C@]2(COC(C)=O)CC[C@]3(C)C(CCC4[C@@]5(C)CC[C@H](OC(=O)OCC)C(C)(C)C5CC[C@]43C)C12 (stereo partly shown) [Compound 8d, 28-O-Acetyl-3-O'-(ethoxycarbonyl)betulin] |  |  |  |  | 200 to 202 | Neg | Neg | Neg | Neg | Neg |  | 
